Read-outs that look alike come from different tables or passages of the source.
How the values were obtained:
[1] = test system: recombinant NL4-3 virus (nef section replaced with Renilla luciferase gene) in MT-2 cells; test: HIV cell culture assay (antiviral activity, luciferase readout); assay type: cell-based
Procedure: HIV cell culture assay—MT-2 cells, 293T cells and the proviral DNA clone of NL4-3 virus were obtained from the NIH AIDS Research and Reference Reagent Program. MT-2 cells were propagated in RPMI 1640 media supplemented with 10% heat inactivated fetal bovine serum (FBS), 100 jag/ml penicillin G and up to 100 units/mL streptomycin. The 293T cells were propagated in DMEM media supplemented with 10% heat inactivated FBS, 100 μg/mL penicillin G and 100 μg/mL streptomycin. A recombinant NL4-3 proviral clone, in which a section of the nef gene was replaced with the Renilla luciferase gene, was used to make the reference virus used in these studies. The recombinant virus was prepared through transfection of the recombinant NL4-3 proviral clone into 293T cells using Transit-293 Transfection Reagent from Mirus Bio LLC (Madison, Wis.). Supernatant was harvested after 2-3 days and the amount of virus present was titered in MT-2 cells using luciferase enzyme activity as a marker by measuring luciferase enzyme activity. Luciferase was quantitated using the EnduRen Live Cell Substrate from Promega (Madison, Wis.). Antiviral activities of compounds toward the recombinant virus were quantified by measuring luciferase activity in MT-2 cells infected for 4-5 days with the recombinant virus in the presence of serial dilutions of the compound.
(Johnson V A, Byington R T. Infectivity Assay. In Techniques in HIV Research. ed. Aldovini A, Walker B D. 71-76. New York: Stockton Press. 1990).

[2] = Compound cytotoxicity, XTT-based colorimetric assay; assay type: cell-based; conditions: human, uninfected MT2 cells, day 4, XTT
Procedure: Compound cytotoxicity and the corresponding CC50 values were determined using the same protocol as described in the antiviral assay except that uninfected cells were used. Cytotoxicity was assessed on day 4 in uninfected MT2 cells by using a XTT (2,3-bis[2-Methoxy-4-nitro-5-sulfophenyl]-2H-tetrazolium-5-carboxyanilide inner salt)-based colorimetric assay (Sigma-Aldrich, St Louis, Mo.).

[3] = Renilla, NL43, MT-2 cells infected for 4-5 days with recombinant NL4-3 Renilla luciferase virus
[4] = MT-2 cells infected for 4-5 days with recombinant NL4-3 Renilla luciferase virus

SMILES | EC50 [1, 3] | CC50 at 4 days [2] | EC50 [1, 4] | CC50 at 4 day [2] | EC50 ([1]; MT-2 cells infected for 4-5 days with recombinant NL4-3 Renilla luciferase virus, read-out: EC50)
CN(C(=O)[C@H](Cc1cc(F)cc(F)c1)NC(=O)NS(=O)(=O)N1CCC(c2ccccc2)C1)c1ccc2scnc2c1 (mixture of isomers) [CA-152] | 0.55 µM | > 100 µM |  |  | 
COc1ccc(N(C)C(=O)[C@H](Cc2ccccc2)NC(=O)NS(=O)(=O)N2CCN(C)CC2c2ccccc2)cc1 (mixture of isomers) [JB-42] | 0.45 µM | > 100 µM |  |  | 
COc1ccc(N(C)C(=O)[C@H](Cc2ccccc2)NC(=O)NS(=O)(=O)NC(C)c2ncnn2C)cc1 (mixture of isomers) [JB-68] | 2.37 µM | > 100 µM |  |  | 
CN(C)C(=O)C1Cc2cccnc2N1S(=O)(=O)NC(=O)N[C@@H](Cc1cc(F)cc(F)c1)C(=O)N(C)c1ccc2scnc2c1 (single isomer, unassigned) [BB-28] |  | > 100 µM | 6.05 µM |  | 
CN(C(=O)[C@H](Cc1cc(F)cc(F)c1)NC(=O)NS(=O)(=O)N1CCCC1c1ccccn1)c1ccc2scnc2c1 (single isomer, unassigned) [VN-1] |  | > 100 µM | 2.48 µM |  | 
CN(C(=O)[C@H](Cc1cc(F)cc(F)c1)NC(=O)NS(=O)(=O)N1CCCC1c1ccccc1)c1ccc2scnc2c1 (single isomer, unassigned) [VN-3] |  | 52.4 µM | 0.85 µM |  | 
CC1Cc2cccnc2N1S(=O)(=O)NC(=O)N[C@@H](Cc1cc(F)cc(F)c1)C(=O)N(C)c1ccc2scnc2c1 (single isomer, unassigned) [VN-6] |  |  | 0.02 µM | > 1 µM | 
CC1CN(S(=O)(=O)NC(=O)N[C@@H](Cc2cc(F)cc(F)c2)C(=O)N(C)c2ccc3scnc3c2)c2ncccc21 (single isomer, unassigned) [VN-14] |  | > 100 µM |  |  | 
CN(C(=O)[C@H](Cc1cc(F)cc(F)c1)NC(=O)NS(=O)(=O)N1CCOc2cccnc21)c1ccc2scnc2c1 [AW-1] | 0.11 µM | > 100 µM |  |  | 
COc1ccc2c(n1)N(S(=O)(=O)NC(=O)N[C@@H](Cc1cc(F)cc(F)c1)C(=O)N(C)c1ccc3scnc3c1)CC2 [AW-2] | 0.01 µM | > 100 µM |  |  | 
COc1ccc(N(C)C(=O)[C@H](Cc2cc(F)cc(F)c2)NC(=O)NS(=O)(=O)N2CCC(F)(F)CC2)cc1F [AW-3] | 0.98 µM | > 100 µM |  |  | 
COc1ccc(N(C)C(=O)[C@H](Cc2cc(F)cc(F)c2)NC(=O)NS(=O)(=O)N2CCCCC2)cc1F [AW-4] | 0.48 µM | > 100 µM |  |  | 
CN(C(=O)[C@H](Cc1cc(F)cc(F)c1)NC(=O)NS(=O)(=O)N1CCc2cccnc21)c1ccc(=O)n(C)c1 [BB-1] | 11 µM | > 100 µM |  |  | 
CCc1ccc(N(C)C(=O)[C@H](Cc2cc(F)cc(F)c2)NC(=O)NS(=O)(=O)N2CCc3cccnc32)cc1 [BB-2] | 0.02 µM | 96 µM |  |  | 
CN(C(=O)[C@H](Cc1cc(F)cc(F)c1)NC(=O)NS(=O)(=O)N1CCc2cccnc21)c1ccc(N2CCOCC2)cc1 [BB-3] | 0.34 µM | 68.1 µM |  |  | 
COc1ccc(N(C)C(=O)[C@H](Cc2cc(F)cc(F)c2)NC(=O)NS(=O)(=O)N2CCc3c(Cl)ccnc32)cc1 [BB-4] | 0.42 µM | 61.9 µM |  |  | 
CN(C(=O)[C@H](Cc1cc(F)cc(F)c1)NC(=O)NS(=O)(=O)N1CCc2cccnc21)c1ccc(C(N)=O)cc1 [BB-5] | 4.91 µM | > 100 µM |  |  | 
Cc1cc(N(C)C(=O)[C@H](Cc2ccccc2)NC(=O)NS(=O)(=O)N2CCc3cccnc32)ccc1Cl [BB-6] | 0.34 µM | > 33.3 µM |  |  | 
CN(C(=O)[C@H](Cc1cc(F)cc(F)c1)NC(=O)NS(=O)(=O)N1CCc2c(Cl)ccnc21)c1ccc2scnc2c1 [BB-8] | 0.44 µM | 82.4 µM |  |  | 
CN(C(=O)[C@H](Cc1cc(F)cc(F)c1)NC(=O)NS(=O)(=O)N1CCc2ccncc21)c1ccc2scnc2c1 [BB-9] | 0.41 µM | > 100 µM |  |  | 
COc1ccc(N(C)C(=O)[C@H](Cc2cc(F)cc(F)c2)NC(=O)NS(=O)(=O)N2CCc3ccncc32)cc1 [BB-10] | 1.08 µM | > 100 µM |  |  | 
CCCc1ccc(N(C)C(=O)[C@H](Cc2cc(F)cc(F)c2)NC(=O)NS(=O)(=O)N2CCc3cccnc32)cc1 [BB-11] | 0.01 µM | 66.3 µM |  |  | 
CC(C)Oc1ccc(N(C)C(=O)[C@H](Cc2cc(F)cc(F)c2)NC(=O)NS(=O)(=O)N2CCc3cccnc32)cn1 [BB-12] | 0.02 µM | 94.9 µM |  |  | 
Cc1cc(F)cc(N(C)C(=O)[C@H](Cc2cc(F)cc(F)c2)NC(=O)NS(=O)(=O)N2CCc3cccnc32)c1 [BB-13] | 0.27 µM | 89.5 µM |  |  | 

SMILES | EC50 [1, 3] | CC50 at 4 days [2] | EC50 [1, 4] | CC50 at 4 day [2] | EC50 ([1]; MT-2 cells infected for 4-5 days with recombinant NL4-3 Renilla luciferase virus, read-out: EC50)
Cc1ccc(N(C)C(=O)[C@H](Cc2cc(F)cc(F)c2)NC(=O)NS(=O)(=O)N2CCc3cncnc32)cc1F [BB-14] | 0.02 µM | 93.1 µM |  |  | 
Cc1cc(N(C)C(=O)[C@H](Cc2cc(F)cc(F)c2)NC(=O)NS(=O)(=O)N2CCc3cccnc32)ccc1C#N [BB-15] | 0.46 µM | > 100 µM |  |  | 
Cc1cc(N(C)C(=O)[C@H](Cc2cc(F)cc(F)c2)NC(=O)NS(=O)(=O)N2CCc3cccnc32)ccc1Cl [BB-16] | 0.03 µM | 56.3 µM |  |  | 
Cc1cc(N(C)C(=O)[C@H](Cc2cc(F)cc(F)c2)NC(=O)NS(=O)(=O)N2CCc3cccnc32)ccc1F [BB-17] | 0.07 µM | 91.2 µM |  |  | 
CC(C)c1ccc(N(C)C(=O)[C@H](Cc2cc(F)cc(F)c2)NC(=O)NS(=O)(=O)N2CCc3cccnc32)cn1 [BB-18] | 0.01 µM | > 100 µM |  |  | 
COc1cncc(N(C)C(=O)[C@H](Cc2cc(F)cc(F)c2)NC(=O)NS(=O)(=O)N2CCc3cccnc32)c1 [BB-19] | 3.27 µM | > 100 µM |  |  | 
Cc1ccc(N(C)C(=O)[C@H](Cc2cc(F)cc(F)c2)NC(=O)NS(=O)(=O)N2CCc3cccnc32)cc1Cl [BB-20] | 0.06 µM | 60.7 µM |  |  | 
COc1ccc(N(C)C(=O)[C@H](Cc2cc(F)cc(F)c2)NC(=O)NS(=O)(=O)N2CCC[C@H]2C(=O)N(C)C)cc1 [BB-21] | 0.75 µM | > 100 µM |  |  | 
CN(C)C(=O)[C@@H]1CCCN1S(=O)(=O)NC(=O)N[C@@H](Cc1cc(F)cc(F)c1)C(=O)N(C)c1ccc2scnc2c1 [BB-22] | 0.38 µM | > 100 µM |  |  | 
CN(C(=O)[C@H](Cc1cc(F)cc(F)c1)NC(=O)NS(=O)(=O)N1CCc2cccnc21)c1ccc(Cl)c(C#N)c1 [BB-23] | 0.28 µM | > 100 µM |  |  | 
CN(C(=O)[C@H](Cc1cc(F)cc(F)c1)NC(=O)NS(=O)(=O)N1CCc2cccnc21)c1ccc(CC(F)F)cc1 [BB-24] | 0.01 µM | > 33.3 µM |  |  | 
CN(C(=O)[C@H](Cc1cc(F)cc(F)c1)NC(=O)N(C)S(=O)(=O)N1CCc2cccnc21)c1ccc2scnc2c1 [BB-25] | 0.53 µM | > 33.3 µM |  |  | 
CN(C)C(=O)[C@H]1CCCN1S(=O)(=O)NC(=O)N[C@@H](Cc1cc(F)cc(F)c1)C(=O)N(C)c1ccc2scnc2c1 [BB-26] | 0.31 µM | > 100 µM |  |  | 
COc1ccc(N(C)C(=O)[C@H](Cc2cc(F)cc(F)c2)NC(=O)NS(=O)(=O)N2CCC[C@@H]2C(=O)N(C)C)cc1 [BB-27] | 0.97 µM | > 100 µM |  |  | 
CN(C(=O)[C@H](Cc1cc(F)cc(F)c1)NC(=O)NS(=O)(=O)N1CCc2cccnc21)c1ccc2cncnc2c1 [BB-30] | 0.26 µM | > 100 µM |  |  | 
COc1ccc(N(C)C(=O)[C@H](Cc2cc(F)cc(F)c2)NC(=O)NS(=O)(=O)N2CCc3cccnc32)cc1 [BB-31] | 0.01 µM | > 33.3 µM |  |  | 
COc1ccc(N(C(=O)[C@H](Cc2cc(F)cc(F)c2)NC(=O)NS(=O)(=O)N2CCc3cccnc32)C2CC2)cc1 [BB-32] | 0.05 µM | 62.6 µM |  |  | 
CN(C(=O)[C@H](Cc1cc(F)cc(F)c1)NC(=O)NS(=O)(=O)N1CCCC1=O)c1ccc2scnc2c1 [BB-33] | 0.45 µM | > 100 µM |  |  | 
O=C(N[C@@H](Cc1cc(F)cc(F)c1)C(=O)N(CCOCc1ccccc1)c1ccc2scnc2c1)NS(=O)(=O)N1CCc2cccnc21 [BB-34] | 0.04 µM | 70.6 µM |  |  | 
CN(C(=O)[C@H](Cc1cc(F)cc(F)c1)NC(=O)NS(=O)(=O)N1CCc2cccnc21)c1ccc(OC(F)F)cc1 [BB-35] | 0.01 µM | 97.2 µM |  |  | 
CCN(CC)S(=O)(=O)NC(=O)N[C@@H](Cc1cc(F)cc(F)c1)C(=O)N(C)c1ccc(OC(F)F)cc1 [BB-36] | 0.16 µM | > 100 µM |  |  | 
CN(C(=O)[C@H](Cc1cc(F)cc(F)c1)NC(=O)NS(=O)(=O)N(C)C)c1ccc(OC(F)F)cc1 [BB-37] | 0.1 µM | > 100 µM |  |  | 
COc1ccc(N(C)C(=O)[C@H](Cc2ccccc2)NC(=O)NS(=O)(=O)N2CCc3c(Cl)cccc32)cc1 [CA-1] | 0.25 µM | 21.4 µM |  |  | 
COc1ccc(N(C)C(=O)[C@H](Cc2ccccc2)NC(=O)NS(=O)(=O)NCc2n[nH]c3ccccc23)cc1 [JB-67] |  |  |  |  | 0.18 µM

Source: patent US10221129B2, “Inhibitors of human immunodeficiency virus replication” (ViiV HEALTHCARE UK (NO.5) LIMITED, priority 2015, dated 2019)
